Data as given in BindingDB's records for doi:10.1124/jpet.103.062398 (Institut De Recherches Servier, 2004).
Where “and” joins values, the source holds several entries; their conditions need not be identical. Identical values can stand only once.

Columns and labels:
D(4) dopamine receptor = D(4) dopamine receptor (Homo sapiens, UniProt P21917)
D(3) dopamine receptor = D(3) dopamine receptor (Homo sapiens, UniProt P35462)
D(2) dopamine receptor [1] = molecular target: D(2) dopamine receptor (Rattus norvegicus, UniProt P61169)
D(2) dopamine receptor (Rattus norvegicus, UniProt P61169), sequence (P61169 whole entry): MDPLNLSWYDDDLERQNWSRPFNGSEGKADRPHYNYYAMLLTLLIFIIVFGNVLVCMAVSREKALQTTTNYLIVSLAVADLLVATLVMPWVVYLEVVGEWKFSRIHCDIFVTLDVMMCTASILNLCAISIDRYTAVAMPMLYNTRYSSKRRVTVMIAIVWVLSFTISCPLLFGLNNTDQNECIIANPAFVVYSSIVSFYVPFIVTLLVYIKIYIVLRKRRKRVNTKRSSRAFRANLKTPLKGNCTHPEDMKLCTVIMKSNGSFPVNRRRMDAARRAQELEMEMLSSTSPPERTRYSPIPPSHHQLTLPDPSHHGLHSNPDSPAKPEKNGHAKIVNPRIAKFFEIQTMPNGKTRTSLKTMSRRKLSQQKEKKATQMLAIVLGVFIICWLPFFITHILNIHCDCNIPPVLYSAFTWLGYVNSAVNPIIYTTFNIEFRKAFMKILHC

D(2) dopamine receptor [2] = molecular target: D(2) dopamine receptor (Homo sapiens, UniProt P14416)
D(2) dopamine receptor (Homo sapiens, UniProt P14416), sequence (P14416 whole entry): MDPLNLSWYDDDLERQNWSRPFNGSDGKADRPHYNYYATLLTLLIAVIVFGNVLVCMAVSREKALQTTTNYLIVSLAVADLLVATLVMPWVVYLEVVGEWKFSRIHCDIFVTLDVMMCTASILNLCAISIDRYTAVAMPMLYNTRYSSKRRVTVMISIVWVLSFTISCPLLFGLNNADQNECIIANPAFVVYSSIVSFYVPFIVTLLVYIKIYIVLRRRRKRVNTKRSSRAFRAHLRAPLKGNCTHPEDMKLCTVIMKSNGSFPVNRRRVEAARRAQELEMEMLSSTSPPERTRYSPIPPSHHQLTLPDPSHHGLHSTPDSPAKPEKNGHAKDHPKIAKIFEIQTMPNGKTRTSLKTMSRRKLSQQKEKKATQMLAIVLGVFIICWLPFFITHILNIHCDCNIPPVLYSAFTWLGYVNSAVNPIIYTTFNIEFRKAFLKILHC

[3] = molecular target: Alpha-1D adrenergic receptor (Homo sapiens, UniProt P25100)
[4] = molecular target: 5-hydroxytryptamine receptor 3A (Mus musculus, UniProt P23979)
5-hydroxytryptamine receptor 3A, sequence (P23979 as listed by the source): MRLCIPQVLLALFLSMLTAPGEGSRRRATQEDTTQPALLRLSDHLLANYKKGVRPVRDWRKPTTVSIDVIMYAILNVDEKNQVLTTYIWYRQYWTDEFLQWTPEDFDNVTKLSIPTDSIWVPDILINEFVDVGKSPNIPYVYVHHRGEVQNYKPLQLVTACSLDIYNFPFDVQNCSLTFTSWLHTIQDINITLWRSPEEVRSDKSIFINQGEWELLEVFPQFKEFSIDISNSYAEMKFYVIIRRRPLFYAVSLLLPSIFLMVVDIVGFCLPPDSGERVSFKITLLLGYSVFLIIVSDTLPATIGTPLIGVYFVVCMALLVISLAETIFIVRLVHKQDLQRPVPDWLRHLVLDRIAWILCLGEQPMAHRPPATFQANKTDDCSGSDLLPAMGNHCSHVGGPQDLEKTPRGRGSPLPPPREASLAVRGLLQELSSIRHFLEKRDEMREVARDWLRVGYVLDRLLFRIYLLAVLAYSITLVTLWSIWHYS

[5] = molecular target: 5-hydroxytryptamine receptor 2A (Homo sapiens, UniProt P28223)
[6] = molecular target: 5-hydroxytryptamine receptor 6 (Homo sapiens, UniProt P50406)
5-hydroxytryptamine receptor 6, sequence (P50406 whole entry): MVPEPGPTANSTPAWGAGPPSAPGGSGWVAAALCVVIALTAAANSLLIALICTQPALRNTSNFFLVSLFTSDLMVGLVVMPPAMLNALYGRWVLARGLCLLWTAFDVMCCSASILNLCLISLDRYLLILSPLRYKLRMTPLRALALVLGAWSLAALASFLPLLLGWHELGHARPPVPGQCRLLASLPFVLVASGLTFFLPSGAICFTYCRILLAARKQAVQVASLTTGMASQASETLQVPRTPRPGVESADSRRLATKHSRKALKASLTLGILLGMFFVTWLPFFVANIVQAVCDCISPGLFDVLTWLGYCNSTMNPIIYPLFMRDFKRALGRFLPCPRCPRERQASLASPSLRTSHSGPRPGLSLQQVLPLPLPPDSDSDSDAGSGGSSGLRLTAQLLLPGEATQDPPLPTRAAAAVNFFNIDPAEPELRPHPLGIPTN

[7] = molecular target: Alpha-2B adrenergic receptor (Homo sapiens, UniProt P18089)
[8] = molecular target: 5-hydroxytryptamine receptor 1A (Homo sapiens, UniProt P08908)
[9] = molecular target: 5-hydroxytryptamine receptor 1B (Homo sapiens, UniProt P28222)
[10] = molecular target: Alpha-2A adrenergic receptor (Homo sapiens, UniProt P08913)
[11] = molecular target: 5-hydroxytryptamine receptor 4 (Cavia porcellus, UniProt O70528)
5-hydroxytryptamine receptor 4, sequence (O70528 whole entry): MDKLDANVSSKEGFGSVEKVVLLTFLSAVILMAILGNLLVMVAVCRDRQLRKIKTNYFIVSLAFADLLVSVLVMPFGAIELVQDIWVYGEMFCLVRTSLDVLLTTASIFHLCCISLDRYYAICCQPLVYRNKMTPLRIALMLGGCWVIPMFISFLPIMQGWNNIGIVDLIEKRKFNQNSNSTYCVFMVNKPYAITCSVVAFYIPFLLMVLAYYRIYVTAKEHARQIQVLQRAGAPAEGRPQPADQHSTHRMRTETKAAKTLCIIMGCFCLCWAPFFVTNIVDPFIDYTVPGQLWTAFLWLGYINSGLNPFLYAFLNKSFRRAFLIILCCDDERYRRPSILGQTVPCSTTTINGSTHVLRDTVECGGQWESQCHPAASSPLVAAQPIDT

[12] = molecular target: 5-hydroxytryptamine receptor 7 (Homo sapiens, UniProt P34969)
5-hydroxytryptamine receptor 7, sequence (P34969 whole entry): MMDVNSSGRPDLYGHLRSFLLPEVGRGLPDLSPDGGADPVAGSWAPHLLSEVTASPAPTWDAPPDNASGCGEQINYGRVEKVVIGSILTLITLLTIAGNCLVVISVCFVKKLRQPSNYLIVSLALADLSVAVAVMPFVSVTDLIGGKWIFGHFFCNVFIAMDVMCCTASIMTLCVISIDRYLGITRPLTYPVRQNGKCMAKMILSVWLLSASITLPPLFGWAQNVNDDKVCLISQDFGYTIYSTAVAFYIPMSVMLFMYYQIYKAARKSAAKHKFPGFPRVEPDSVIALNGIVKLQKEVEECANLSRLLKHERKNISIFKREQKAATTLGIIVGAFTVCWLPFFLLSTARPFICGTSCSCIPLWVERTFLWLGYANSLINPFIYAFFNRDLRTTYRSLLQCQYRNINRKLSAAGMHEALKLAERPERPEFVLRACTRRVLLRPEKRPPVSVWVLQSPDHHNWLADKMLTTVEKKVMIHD

[13] = molecular target: 5-hydroxytryptamine receptor 1D (Homo sapiens, UniProt P28221)
5-hydroxytryptamine receptor 1D, sequence (P28221 whole entry): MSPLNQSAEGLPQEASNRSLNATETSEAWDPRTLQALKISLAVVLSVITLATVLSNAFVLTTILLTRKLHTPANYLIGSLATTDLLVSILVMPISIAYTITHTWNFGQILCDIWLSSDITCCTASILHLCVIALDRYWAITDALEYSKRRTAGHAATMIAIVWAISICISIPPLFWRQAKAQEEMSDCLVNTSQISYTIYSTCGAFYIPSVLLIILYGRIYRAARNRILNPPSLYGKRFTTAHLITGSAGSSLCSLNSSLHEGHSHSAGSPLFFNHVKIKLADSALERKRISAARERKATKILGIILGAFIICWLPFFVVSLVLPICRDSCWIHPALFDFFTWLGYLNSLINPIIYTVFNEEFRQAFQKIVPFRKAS

[14] = molecular target: 5-hydroxytryptamine receptor 5A (Homo sapiens, UniProt P47898)
5-hydroxytryptamine receptor 5A, sequence (P47898 whole entry): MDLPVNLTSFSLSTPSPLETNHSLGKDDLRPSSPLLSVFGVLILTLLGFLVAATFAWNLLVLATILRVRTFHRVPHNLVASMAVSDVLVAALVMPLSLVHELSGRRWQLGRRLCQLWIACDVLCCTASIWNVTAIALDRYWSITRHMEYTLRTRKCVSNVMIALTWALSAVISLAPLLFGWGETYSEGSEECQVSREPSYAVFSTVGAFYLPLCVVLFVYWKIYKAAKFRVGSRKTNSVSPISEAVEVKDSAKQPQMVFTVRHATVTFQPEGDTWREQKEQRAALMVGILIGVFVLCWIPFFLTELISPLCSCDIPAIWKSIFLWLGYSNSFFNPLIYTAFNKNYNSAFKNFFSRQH

[15] = molecular target: Alpha-1A adrenergic receptor (Rattus norvegicus, UniProt P43140)
Alpha-1A adrenergic receptor (Rattus norvegicus, UniProt P43140), sequence (P43140 whole entry): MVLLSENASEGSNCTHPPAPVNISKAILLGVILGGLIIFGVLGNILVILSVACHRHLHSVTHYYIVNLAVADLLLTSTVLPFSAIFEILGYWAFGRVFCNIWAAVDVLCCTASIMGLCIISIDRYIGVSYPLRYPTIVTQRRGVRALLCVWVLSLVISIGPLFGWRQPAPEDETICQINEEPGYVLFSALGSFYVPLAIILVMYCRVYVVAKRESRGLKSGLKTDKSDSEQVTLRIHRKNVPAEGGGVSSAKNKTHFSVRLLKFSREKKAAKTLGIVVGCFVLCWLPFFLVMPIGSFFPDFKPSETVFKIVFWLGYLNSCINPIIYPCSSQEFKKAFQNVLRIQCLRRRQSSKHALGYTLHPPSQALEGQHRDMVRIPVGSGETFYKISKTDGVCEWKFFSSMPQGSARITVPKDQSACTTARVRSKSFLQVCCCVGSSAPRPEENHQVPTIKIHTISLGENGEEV

[16] = molecular target: Alpha-1A adrenergic receptor (Homo sapiens, UniProt P35348)
[17] = molecular target: Alpha-1B adrenergic receptor (Homo sapiens, UniProt P35368)
[18] = molecular target: Alpha-2C adrenergic receptor (Homo sapiens, UniProt P18825)
[19] = molecular target: 5-hydroxytryptamine receptor 2B (Homo sapiens, UniProt P41595)
[20] = molecular target: 5-hydroxytryptamine receptor 2C (Homo sapiens, UniProt P28335)
[21] = molecular target: T1, Alpha-2A adrenergic receptor [16-465] (Rattus norvegicus, UniProt P22909)
T1 construct: 16-465

D(3) dopamine receptor, sequence (P35462 as listed by the source): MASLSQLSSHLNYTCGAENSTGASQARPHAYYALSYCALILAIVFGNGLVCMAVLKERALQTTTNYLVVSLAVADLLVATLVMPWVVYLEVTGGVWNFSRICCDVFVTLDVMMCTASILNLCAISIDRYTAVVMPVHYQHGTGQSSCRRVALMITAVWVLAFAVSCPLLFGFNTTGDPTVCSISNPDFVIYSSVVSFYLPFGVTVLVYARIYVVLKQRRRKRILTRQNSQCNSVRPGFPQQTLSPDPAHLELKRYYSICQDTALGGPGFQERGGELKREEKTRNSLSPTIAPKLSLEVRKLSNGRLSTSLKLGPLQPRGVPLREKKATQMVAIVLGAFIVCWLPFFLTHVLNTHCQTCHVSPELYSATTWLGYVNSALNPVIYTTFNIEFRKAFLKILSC
D(4) dopamine receptor, sequence (P21917 whole entry): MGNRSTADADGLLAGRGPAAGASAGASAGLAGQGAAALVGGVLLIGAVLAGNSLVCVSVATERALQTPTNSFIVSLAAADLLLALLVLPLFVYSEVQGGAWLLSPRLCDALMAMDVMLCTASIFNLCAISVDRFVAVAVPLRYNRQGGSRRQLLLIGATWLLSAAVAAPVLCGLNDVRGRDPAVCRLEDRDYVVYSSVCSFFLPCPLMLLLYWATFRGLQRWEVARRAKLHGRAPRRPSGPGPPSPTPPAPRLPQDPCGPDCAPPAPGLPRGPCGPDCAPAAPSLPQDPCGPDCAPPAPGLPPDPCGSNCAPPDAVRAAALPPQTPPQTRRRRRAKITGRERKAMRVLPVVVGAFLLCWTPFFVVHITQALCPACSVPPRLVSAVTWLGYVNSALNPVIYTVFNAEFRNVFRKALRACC

| Ki (D(3) dopamine receptor) | Ki (D(2) dopamine receptor [2]) | Compound | Ki (D(2) dopamine receptor [1]) | Ki [4] | Ki [6] | Ki [11] | Ki [12] | Ki [14] | Ki [15] | also measured |
| --- | --- | --- | --- | --- | --- | --- | --- | --- | --- | --- |
| 8.91 nM | 513 nM and 355 nM | CCCN1CCO[C@@H]2c3cc(C(N)=O)ccc3CC[C@H]21 [S32504 (+)] | 457 nM |  |  |  |  |  |  | Ki (D(4) dopamine receptor): 5130 nM |
| 0.26 nM | 29.5 nM | N#Cc1ccc2c(c1)[C@H]1CN(CCCCNC(=O)c3ccc(-c4ccccc4)cc3)C[C@@H]1CO2 [S33084] |  |  |  |  |  |  |  |  |
| 8.91 nM |  | CCCN1CCOC2c3cc(C(N)=O)ccc3CCC21 (stereo not drawn) [S32504] |  | > 10000 nM | > 10000 nM | > 10000 nM | 661 nM | > 10000 nM | > 10000 nM | Ki [3]: > 10000 nM; Ki [5]: 5250 nM; Ki [7]: 1660 nM; Ki [8]: 257 nM; Ki [9]: > 10000 nM; Ki [10]: 8130 nM; Ki [13]: 263 nM; Ki [16]: > 10000 nM; Ki [17]: > 10000 nM; Ki [18]: > 10000 nM; Ki [19]: 4570 nM; Ki [20]: > 10000 nM; Ki [21]: > 10000 nM |
|  |  | CCCN(CCC)CCc1cccc2c1CC(=O)N2 | 1150 nM | > 10000 nM | > 10000 nM | > 10000 nM | 1510 nM | > 10000 nM | > 10000 nM |  |
